Test results reported in patent US20220184008A1, “MODULATORS OF INTRACELLULAR CHLORIDE CONCENTRATION” (FONDAZIONE ISTITUTO ITALIANO DI TECNOLOGIA, priority 2019, published 2022).

Assays:
NKCC2 = molecular target: T1, NKCC2 (Homo sapiens, UniProt Q13621); test: Thallium-based assay in NKCC2-transfected HEK293 cells; format: cell-based
T1 construct: expressed in transfected cells; host or cells: HEK293
T1 sequence (Q13621 1-1099): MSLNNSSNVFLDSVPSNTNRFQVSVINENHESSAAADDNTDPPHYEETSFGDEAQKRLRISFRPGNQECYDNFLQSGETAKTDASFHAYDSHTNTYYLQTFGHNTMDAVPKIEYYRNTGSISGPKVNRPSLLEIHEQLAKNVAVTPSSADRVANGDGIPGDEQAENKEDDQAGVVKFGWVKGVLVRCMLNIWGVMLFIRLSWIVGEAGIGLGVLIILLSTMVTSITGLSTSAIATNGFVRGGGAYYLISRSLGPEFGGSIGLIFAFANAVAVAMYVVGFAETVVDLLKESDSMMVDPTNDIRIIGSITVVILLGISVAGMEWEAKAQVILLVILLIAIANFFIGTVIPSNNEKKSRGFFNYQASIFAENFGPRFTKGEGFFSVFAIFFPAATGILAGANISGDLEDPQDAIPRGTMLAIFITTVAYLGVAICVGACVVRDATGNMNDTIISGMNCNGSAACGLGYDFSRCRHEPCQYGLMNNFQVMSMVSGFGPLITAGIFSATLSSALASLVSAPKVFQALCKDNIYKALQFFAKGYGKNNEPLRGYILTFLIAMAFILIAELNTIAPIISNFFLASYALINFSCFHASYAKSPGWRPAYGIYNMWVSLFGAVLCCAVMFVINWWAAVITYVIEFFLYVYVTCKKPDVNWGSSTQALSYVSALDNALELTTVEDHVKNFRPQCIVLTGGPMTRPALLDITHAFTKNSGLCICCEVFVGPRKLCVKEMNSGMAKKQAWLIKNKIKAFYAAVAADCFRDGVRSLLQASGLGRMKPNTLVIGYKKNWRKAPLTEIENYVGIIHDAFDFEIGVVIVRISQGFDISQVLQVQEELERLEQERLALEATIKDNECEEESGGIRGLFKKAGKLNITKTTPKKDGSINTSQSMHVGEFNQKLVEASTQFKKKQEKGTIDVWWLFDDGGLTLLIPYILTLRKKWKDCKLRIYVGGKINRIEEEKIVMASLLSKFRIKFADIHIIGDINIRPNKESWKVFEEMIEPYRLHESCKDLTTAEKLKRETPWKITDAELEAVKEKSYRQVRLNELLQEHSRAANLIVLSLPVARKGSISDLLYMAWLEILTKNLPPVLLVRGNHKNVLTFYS
Text: The Thallium-based assay is a standard assay used to measure activity of potassium transporters, like NKCC2 which is a sodium potassium and chloride co-transporter. The assay consists on the monitoring of the cells upon the application of thallium (which mimic K^+) and consequently NaCl, which entering into cells by NKCC2, activated by the presence of the chloride ions, binds the fluorescent dye, thus determining a fluorescence increase. This assay involves parallel testing in 96 wells for a quick and easy drug screening. In detail, kidney epithelial cells (HEK293) were transfected with NKCC2 transporters, or a mock construct (control). After two days, the cells were loaded with a thallium-sensitive fluorescent dye in a Cl-free medium. After 1 hour of incubation, the inhibitory activity of bumetanide and furosemide (as positive controls) and the new compounds by monitoring fluorescence upon application of thallium (to mimic K) and subsequently NaCl were tested. When entering cells by NKCC2 (activated by the presence of Cl), thallium binds the fluorescent dye and increases fluorescence. […] A decreased fluorescence in the mock-transfected cells treated with bumetanide and furosemide was observed. […] This latter result was used to normalize the fluorescence measurements obtained with the assay. In particular, the ΔF/F0 value of the mock-transfected cells (both control and treated) was subtracted from the respective ΔF/F0 value of the cells transfected with the Cl transporters. With this assay, the novel chemical entities were tested for their ability to block NKCC2 (Results in Table 2).
The arrow indicates the addition of thallium (final concentration 2 mM) and NaCl stimulus (135 mM) used to initiate the flux assay. b) Quantification of the effect of bumetanide, furosemide and 3 example compounds (3.8, 3.13, 3.17) in the thallium-based assay on NKCC2-transfected HEK293 cells. Data represents mean±sem from 5 independent experiments, and they are represented as % of the controls. *P<0.05, **P<0.01, ***P<0.001 Kruskal-Wallis Anova (Dunn's Post hoc Test); ###P<0.001 two-tailed unpaired Student t-test.

NKCC1 = test: Calcium kinetic assay in primary cultures of immature hippocampal neurons; format: cell-based; conditions: for NKCC1 Inhibition % 10 μM Neurons Calcium kinetic assay: immature neurons 3 DIV; for fluorescence increase upon GABA application compared with vehicle (DMSO)-treated controls: GABA 100 μM, normalized to KCl
Protocol: FIG. 2: In vitro testing of the NKCC1 inhibitors in a calcium kinetic assay. a) Example traces of fluorescence levels upon application of GABA (100 μM) and KCl (90 mM) used to trigger calcium influx in primary neuronal cultures treated after 3 days in culture (3 DIV) with vehicle, bumetanide, furosemide and compounds 3.8, 3.13 and 3.17 in the calcium kinetic assay. b) Quantification of the average fluorescence increase upon GABA application normalized to the increase upon KCl application in neurons treated with bumetanide, furosemide and 3 exemplary compounds (3.8, 3.13, 3.17) (10 μM, 100 μM). Data represents mean±sem from 5 independent experiments, and they are presented as % of the control. *P<0.05, **P<0.01, ***P<0.001 Kruskal-Wallis Anova (Dunn's Post hoc Test).
Next, the compounds of the invention were tested for their ability to revert the depolarizing GABAergic signaling in immature neurons. This effect was indirectly measured as calcium influx into the cells with an in vitro calcium kinetic assay in primary cultures of hippocampal neurons. The calcium kinetic assay exploits the physiological, endogenous, high expression of NKCC1 in immature neurons, which causes depolarizing actions of GABA and can activate voltage-gated Ca^2+ channels. Thus, in immature neurons, a compound that blocks NKCC1 is predicted to inhibit Ca^2+ responses upon GABA application. Immature neurons were cultured for 3 days in vitro (3 DIV) and loaded for 15 min with a calcium-sensitive dye (Fluo4). Then, the neurons were treated with bumetanide and furosemide (as positive controls) or with each of the selected compounds for 15 min. As a functional readout, the fluorescence level was monitored in these cultures before and after application of GABA (100 μM, for 20 sec). To test for neuronal viability at the end of the experiment, KCl was applied (90 mM, for 40 sec), which strongly depolarizes neurons, causing high activation of voltage-gated Ca^2+ channels in live cells. To quantify how bumetanide, furosemide, and selected compounds influenced NKCC1 inhibition, the fluorescence values were normalized upon GABA application to the fluorescence levels upon KCl application in treated neurons.

[1] = 10 μM, NKCC2-transfected HEK293, Table 2

| inhibition at 10 µM (NKCC2; [1]) [%] | Compound | NKCC1 Inhibition % 10 μM Neurons Calcium kinetic assay (NKCC1; Table 1) [%] | NKCC1 Inhibition % 10 μM Neurons Calcium kinetic assay (NKCC1; Table 2) [%] | also measured |
| --- | --- | --- | --- | --- |
| 0 | CCCCCCCCNc1ccc([N+](=O)[O-])cc1S(=O)(=O)NC [Compound 1.12, N-methyl-5-nitro-2-(octylamino)benzenesulfonamide] | – | – | – |
| 0 | CCCCNc1ccc(C(=O)O)cc1S(N)(=O)=O [Compound 2.6, 4-(butylamino)-3-sulfamoyl-benzoic acid] | 14 | 14 | – |
| 13 | CN(C)S(=O)(=O)c1cc([N+](=O)[O-])ccc1NCCC(C)(C)C [Compound 1.17, 2-(3,3-dimethylbutylamino)-N,N-dimethyl-5-nitro-benzenesulfonamide] | – | – | – |
| 0 | CCCCNc1ccc(C(=O)O)cc1S(=O)(=O)N(C)C [Compound 3.11, 4-(butylamino)-3-(dimethylsulfamoyl)benzoic acid] | 8 | 8 | – |
| 23 | CC(C)(C)CCNc1ccc(C(=O)O)cc1S(N)(=O)=O [Compound 2.9, 4-(3,3-dimethylbutylamino)-3-sulfamoyl-benzoic acid] | 25 | 25 | – |
| – | Furosemide [reference compound] | 36 | 36 | fluorescence increase upon GABA application compared with vehicle (DMSO)-treated controls (NKCC1): significantly reduced; NKCC2 Inhibition % 10 μM Thallium Assay (NKCC2; [1]): 0% |
| 0 | CCCCCCNc1ccc(C(=O)O)cc1S(N)(=O)=O [Compound 2.7, 4-(hexylamino)-3-sulfamoyl-benzoic acid] | 10 | 10 | – |
| 0 | CC(C)(C)CCNc1cc(Cl)c(C(=O)O)cc1S(N)(=O)=O [Compound 2.5, 2-chloro-4-(3,3-dimethylbutylamino)-5-sulfamoyl-benzoic acid] | – | – | – |
| 8 | CCCCCCNc1ccc(C(=O)O)cc1S(=O)(=O)NC [Compound 3.7, 4-(hexylamino)-3-(methylsulfamoyl)benzoic acid] | 7 | 7 | – |
| 0 | CC(C)(C)CCNc1ccc([N+](=O)[O-])cc1S(N)(=O)=O [Compound 1.9, 2-(3,3-dimethylbutylamino)-5-nitro-benzenesulfonamide] | – | – | – |
| 99 | CCCCNc1cc(C(=O)O)cc(S(N)(=O)=O)c1Oc1ccccc1 [Bumetanide, reference compound] | 52 | 52 | fluorescence increase upon GABA application compared with vehicle (DMSO)-treated controls (NKCC1): significantly reduced; ion flux and consequent increase in fluorescence in NKCC2-transfected cells (NKCC2; pre-incubation 10 μM): significantly reduced |
| 0 | CCCCCCCCNc1ccc(C(=O)O)cc1S(=O)(=O)NC [Compound 3.8, 3-(methylsulfamoyl)-4-(octylamino)benzoic acid] | 20 | 20 | – |
| 29 | CCCCCCNc1ccc(C(=O)O)cc1S(=O)(=O)N(C)C [Compound 3.12, 3-(dimethylsulfamoyl)-4-(hexylamino)benzoic acid] | 13 | 13 | – |
| 0 | CCCCCCCCNc1ccc([N+](=O)[O-])cc1S(=O)(=O)N(C)C [Compound 1.16, N,N-dimethyl-5-nitro-2-(octylamino)benzenesulfonamide] | – | – | – |
| 0 | CNS(=O)(=O)c1cc([N+](=O)[O-])ccc1NCCC(C)(C)C [Compound 1.13, 2-(3,3-dimethylbutylamino)-N-methyl-5-nitro-benzenesulfonamide] | – | – | – |
| 0 | CCCCCCCCNc1ccc(C(=O)O)cc1S(N)(=O)=O [Compound 2.8, 4-(octylamino)-3-sulfamoyl-benzoic acid] | 3 | 3 | – |
| 0 | CCCCCCNc1ccc([N+](=O)[O-])cc1S(=O)(=O)N(C)C [Compound 1.15, 2-(hexylamino)-N,N-dimethyl-5-nitro-benzenesulfonamide] | – | – | – |
| 16 | CCCCCCCCNc1cc(Cl)c(C(=O)O)cc1S(N)(=O)=O [Compound 2.4, 2-chloro-4-(octylamino)-5-sulfamoyl-benzoic acid] | – | – | – |
| 10 | CCCCCCCCNc1ccc([N+](=O)[O-])cc1S(N)(=O)=O [Compound 1.8, 5-nitro-2-(octylamino)benzenesulfonamide] | – | – | – |
| 4 | CCCCNc1ccc([N+](=O)[O-])cc1S(N)(=O)=O [Compound 1.6, 2-(butylamino)-5-nitro-benzenesulfonamide] | – | – | – |
| 0 | CCCCCCNc1ccc([N+](=O)[O-])cc1S(=O)(=O)NC [Compound 1.11, 2-(hexylamino)-N-methyl-5-nitro-benzenesulfonamide] | – | – | – |
| 14 | CCCCCCNc1cc(Cl)c(C(=O)O)cc1S(N)(=O)=O [Compound 2.3, 2-chloro-4-(hexylamino)-5-sulfamoyl-benzoic acid] | – | – | – |
| 0 | CCCCNc1ccc([N+](=O)[O-])cc1S(=O)(=O)NC [Compound 1.10, 2-(butylamino)-N-methyl-5-nitro-benzenesulfonamide] | – | – | – |
| 0 | CCCCNc1ccc([N+](=O)[O-])cc1S(=O)(=O)N(C)C [Compound 1.14, 2-(butylamino)-N,N-dimethyl-5-nitro-benzenesulfonamide] | – | – | – |
